B1: Myoglobin: Human heart myoglobin obtained from Calbiochem (protein, UniProt P02144 2-154, looked up)
Myoglobin: GLSDGEWQLVLNVWGKVEADIPGHGQEVLIRLFKGHPETLEKFDKFKHLKSEDEMKASEDLKKHGATVLTALGGILKKKGHHEAEIKPLAQSHATKHKIPVKYLEFISECIIQVLQSKHPGDFGADAQGAMNKALELFRKDMASNYKELGFQG

Tests used:
[1] = molecular target: T1, Myeloperoxidase (Homo sapiens, UniProt P05164); experiment: Inhibition of peroxidase activities with PS-1 by methimazole: Myeloperoxidase; format: biochemical; settings: 50 μmol/L methimazole, enzyme 1 μg/mL
T1 sequence (P05164 49-745): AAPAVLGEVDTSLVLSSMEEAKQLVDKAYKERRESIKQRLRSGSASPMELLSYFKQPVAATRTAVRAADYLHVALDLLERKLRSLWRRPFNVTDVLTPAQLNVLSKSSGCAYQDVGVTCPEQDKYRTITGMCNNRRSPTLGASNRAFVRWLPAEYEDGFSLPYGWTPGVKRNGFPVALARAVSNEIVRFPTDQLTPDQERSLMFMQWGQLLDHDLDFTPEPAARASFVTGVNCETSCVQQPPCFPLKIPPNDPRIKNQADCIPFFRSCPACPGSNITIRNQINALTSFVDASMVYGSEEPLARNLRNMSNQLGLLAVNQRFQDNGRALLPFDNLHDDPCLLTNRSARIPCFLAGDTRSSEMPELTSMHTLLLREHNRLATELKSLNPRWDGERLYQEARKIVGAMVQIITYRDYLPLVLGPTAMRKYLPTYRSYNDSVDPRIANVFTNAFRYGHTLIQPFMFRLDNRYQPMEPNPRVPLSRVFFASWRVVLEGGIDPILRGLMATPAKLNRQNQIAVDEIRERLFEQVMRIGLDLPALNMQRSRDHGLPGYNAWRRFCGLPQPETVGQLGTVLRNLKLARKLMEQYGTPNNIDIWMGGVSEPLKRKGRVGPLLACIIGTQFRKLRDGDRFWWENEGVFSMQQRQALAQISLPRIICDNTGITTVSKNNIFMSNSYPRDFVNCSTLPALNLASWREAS
Protocol: (§1) Urine samples were diluted 1:4 into distilled water to minimize inhibitory effects observed with hyperosmolal urines. Two μL of diluted urine were added to 12×75 mm polystyrene test tube containing 50 μL of the PS-1 solution. The tubes were incubated at 37° C. for 5 minutes. MPO activity was determined by chemiluminescence emission using a Turner TD-20e luminometer maintained at 37° C. Leukocyte counting was performed manually by using a hemacytometer chamber (Kova Glasstic slide, Hycor, Irvine, Calif.) on each urine sample to determine the number of cells/mL.
(§2) The reactivity of PS-1 with heme proteins was assessed to determine if this substrate had more restricted specificity. Materials and methods were according to the description above.
(§3) Several peroxidases were detected with PS-1 substrate including EPO, MPO, LPO, and TPO. Addition of 50 μmol/L methimazole, an inhibitor of EPO, reduces activities of EPO, TPO and LPO by >90%, while MPO was inhibited by less than about 50% (Table 6). The addition of methimazole to the PS-1 assay allows MPO activity to be detected selectively.

[2] = molecular target: T2, Eosinophil Peroxidase (Homo sapiens, UniProt P11678); experiment: Inhibition of peroxidase activities with PS-1 by methimazole: Eosinophil Peroxidase; format: biochemical; settings: 50 μmol/L methimazole, enzyme 1 μg/mL
T2 sequence (P11678 140-715): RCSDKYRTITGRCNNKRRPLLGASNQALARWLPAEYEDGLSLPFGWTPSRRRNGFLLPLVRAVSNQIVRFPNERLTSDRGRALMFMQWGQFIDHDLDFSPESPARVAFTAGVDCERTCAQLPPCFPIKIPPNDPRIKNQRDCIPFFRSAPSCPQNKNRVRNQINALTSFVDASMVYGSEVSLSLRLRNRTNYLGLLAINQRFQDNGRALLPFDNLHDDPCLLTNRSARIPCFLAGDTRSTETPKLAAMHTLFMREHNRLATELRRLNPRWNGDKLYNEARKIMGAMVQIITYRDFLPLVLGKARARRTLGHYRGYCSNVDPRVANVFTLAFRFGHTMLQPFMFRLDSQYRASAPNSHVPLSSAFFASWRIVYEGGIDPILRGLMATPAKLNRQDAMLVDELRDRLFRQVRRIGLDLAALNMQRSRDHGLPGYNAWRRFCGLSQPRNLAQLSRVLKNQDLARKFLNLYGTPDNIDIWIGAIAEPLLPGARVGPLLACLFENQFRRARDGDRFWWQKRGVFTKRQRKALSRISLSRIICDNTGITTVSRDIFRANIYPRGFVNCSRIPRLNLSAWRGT
Protocol: as §1, §2, §3

[3] = molecular target: T3, Thyroid peroxidase (Homo sapiens, UniProt P07202); experiment: Inhibition of peroxidase activities with PS-1 by methimazole: Thyroid peroxidase; format: biochemical; settings: 50 μmol/L methimazole, enzyme 1 μg/mL
T3 sequence (P07202 19-933): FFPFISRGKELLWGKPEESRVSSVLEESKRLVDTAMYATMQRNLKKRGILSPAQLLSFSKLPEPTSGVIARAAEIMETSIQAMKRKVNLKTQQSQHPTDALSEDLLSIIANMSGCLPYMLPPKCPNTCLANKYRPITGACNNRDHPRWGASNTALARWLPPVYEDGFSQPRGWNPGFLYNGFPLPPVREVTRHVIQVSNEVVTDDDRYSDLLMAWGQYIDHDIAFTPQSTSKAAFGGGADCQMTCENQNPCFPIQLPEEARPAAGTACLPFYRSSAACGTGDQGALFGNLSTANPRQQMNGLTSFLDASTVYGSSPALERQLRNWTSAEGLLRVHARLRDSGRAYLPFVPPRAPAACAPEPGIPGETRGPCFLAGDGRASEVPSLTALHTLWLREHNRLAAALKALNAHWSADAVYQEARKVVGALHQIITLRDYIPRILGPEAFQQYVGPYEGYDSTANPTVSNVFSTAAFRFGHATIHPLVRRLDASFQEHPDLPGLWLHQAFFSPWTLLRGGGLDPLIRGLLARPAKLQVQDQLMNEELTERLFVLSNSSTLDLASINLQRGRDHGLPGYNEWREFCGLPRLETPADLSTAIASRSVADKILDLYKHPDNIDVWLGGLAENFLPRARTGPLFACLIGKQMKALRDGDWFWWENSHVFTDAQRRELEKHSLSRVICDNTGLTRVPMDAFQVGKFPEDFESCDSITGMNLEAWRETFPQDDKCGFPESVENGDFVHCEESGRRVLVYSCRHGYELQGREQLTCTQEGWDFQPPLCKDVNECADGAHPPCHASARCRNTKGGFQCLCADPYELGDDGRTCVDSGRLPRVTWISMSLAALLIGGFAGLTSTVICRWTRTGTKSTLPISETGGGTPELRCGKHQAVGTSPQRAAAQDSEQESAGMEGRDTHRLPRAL
Protocol: as §1, §2, §3

[4] = molecular target: Lactoperoxidase (Bos taurus, UniProt P80025); experiment: Inhibition of peroxidase activities with PS-1 by methimazole: Lactoperoxidase; format: biochemical; settings: 50 μmol/L methimazole, enzyme 1 μg/mL
Protocol: as §1, §2, §3

[5] = molecular target: Hemoglobin (Homo sapiens, UniProt P68871+P69905); experiment: Inhibition of peroxidase activities with PS-1 by methimazole: Hemoglobin; format: biochemical; settings: 50 μmol/L methimazole, protein 1 μg/mL
Protocol: (§4) Centricon ultrafiltration filters were obtained from Amicon (Daven, Mass.). Polystyrene tubes (5.0 mL volume, 75×12 mm) used for the assay were manufactured by Sarstedt (Arlington Heights, Ill.). The chemiluminescent substrate, 7-dimethylamino-naphthalene-1,2-dicarbonic acid-hydrazide (7-DNH) was purchased from Boehringer Mannheim (Indianapolis, Ind.). PS-1 acridan substrate (solution A and solution B) was obtained from Lumigen Inc. (Southfield, Mich.). Dimethyl sulfoxide, cetyltrimethyl-ammonium chloride (CTAC) as a 25% liquid and glycerol were obtained from Aldrich Chemical Company Inc. (Milwaukee, Wis.). Tween-20 and Sodium Chloride were purchased from Fisher Scientific (Fair Lawn, N.J.). […]
(§5) Urine samples were diluted 1:4 into distilled water to minimize inhibitory effects observed with hyperosmolal urines. […] MPO activity was determined by chemiluminescence emission using a Turner TD-20e luminometer maintained at 37° C. […]
(§6) The reactivity of PS-1 with heme proteins was assessed to determine if this substrate had more restricted specificity. […]

[6] = molecular target: T4, Myoglobin (Homo sapiens, UniProt P02144); experiment: Inhibition of peroxidase activities with PS-1 by methimazole: Myoglobin; format: biochemical; settings: 50 μmol/L methimazole, protein 1 μg/mL
T4 sequence (P02144 1-154): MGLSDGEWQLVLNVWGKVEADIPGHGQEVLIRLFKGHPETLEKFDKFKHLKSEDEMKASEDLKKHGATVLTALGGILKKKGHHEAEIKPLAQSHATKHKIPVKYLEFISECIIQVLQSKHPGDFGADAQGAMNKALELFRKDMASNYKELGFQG
Protocol: as §4, §5, §6

[7] = system: Hb; experiment: Interference studies in Hb assay (7-DNH chemiluminescence); format: biochemical, human; settings: level producing a signal equivalent to 3 RBC per high power field, fixed Hb concentration
Protocol: Numerous potential interfering substances, which either enhance or quench the signal generated by cyclic hydrazides, were evaluated. The effects of these potentially interfering substances on light emission was investigated at varying concentrations of the interfering composition. Assays were performed using serial dilutions of the potential interfering compositions in ultrafiltered urine at a fixed concentration of Hb. Comparisons of chemiluminescence emission were made between a reference solution (Hb in ultrafiltered urine) without added interfering compositions and solutions with added interferant.
Generally, the value of 3 RBC per high power field is the normal cutoff point.
Bilirubin and uric acid were examined as a possible negative interfering compositions because of their chemical structure which may quench energy emitted.

[8] = molecular target: T5, MPO (Homo sapiens, UniProt P05164); experiment: Effects of potential interfering substances in WBC (MPO, PS-1) assay; format: biochemical
T5 sequence (P05164 49-745): T1 sequence (P05164 49-745)
Protocol: as §1
Several possible interfering substances were added to urine and tested for inhibitory effects. Several common medications were also tested for potential inhibitory effects. […] Hb at concentrations of >10 μg/mL and Mb at concentrations >2 μg/mL were detected by the PS-1 substrate as the chemiluminescence emission was above the normal urine background. Samples grossly populated with bacteria caused slight inhibition of the MPO activity. Urine samples may contain many epithelial cells, casts, crystals, and numerous artifacts but none of these appear to interfere with the chemiluminescence emission from MPO.

[9] = Activity of hemoglobin and myoglobin (oxidation states of iron, standard curves) with 7-DNH; format: biochemical
Protocol: The effect of the oxidation state of the heme iron on chemiluminescence emission was evaluated. Equal concentrations of hemoglobin and myoglobin were used. Standard solutions of Hb and Mb at varying concentrations were assayed to evaluate their behavior in the reaction.
With the addition of dithionite to the lysing agent, all of the iron in hemoglobin is immediately converted to the ferrous oxidation which subsequently reacts with H2 O2 and the substrate to form product. OxyHb and oxyMb […] were made by reducing methemoglobin/metmyoglobin with sodium dithionite and then oxygenating each protein by subsequent passage through a Sephadex column. The oxidation of oxyHb/oxyMb to the ferry (Fe^+4) oxidation state was achieved by adding an excess of H2 O2 to the protein solutions.

Sequence of Hemoglobin (P69905 whole entry): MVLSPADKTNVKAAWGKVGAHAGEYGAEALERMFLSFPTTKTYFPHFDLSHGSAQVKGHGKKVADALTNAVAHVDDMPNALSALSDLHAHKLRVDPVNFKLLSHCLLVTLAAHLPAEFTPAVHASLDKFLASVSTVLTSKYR
Sequence of Hemoglobin (P68871 whole entry): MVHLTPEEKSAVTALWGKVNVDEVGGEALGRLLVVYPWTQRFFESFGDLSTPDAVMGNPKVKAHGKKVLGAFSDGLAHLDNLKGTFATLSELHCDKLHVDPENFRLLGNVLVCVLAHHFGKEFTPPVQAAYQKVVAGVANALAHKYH

Molecule	Chemiluminescence with methimazole [1]	inhibition at 50 µM [1]	Chemiluminescence with methimazole [2]	inhibition at 50 µM [2]	Chemiluminescence with methimazole [3]	inhibition at 50 µM [3]	Chemiluminescence with methimazole [4]	inhibition at 50 µM [4]	Chemiluminescence with methimazole [5]	inhibition at 50 µM [5]	Chemiluminescence with methimazole [6]	inhibition at 50 µM [6]	Level of Interference [7]	Level of Interference ([7]; listed as Mb)	Level of Interference ([7]; listed as myoglobin)	interference with PS-1 assay ([8]; Mb <2 μg/mL)	Interference ([8]; level giving signal equal to 5 WBC/high power field, highest tested: hemoglobin 250, myoglobin 200 μg/mL)	reactivity of Mb relative to Hb (fold less reactive) ([9]; alternative source of Mb, 7-DNH)	activity compared to Hb ([9]; up to 4 μg/mL, FIG. 7)
Cn1cc[nH]c1=S [Methimazole, methimazole]	130 TLU	58%	74 TLU	> 90%	0.1 TLU	> 90%	0.9 TLU	> 90%	0.8 TLU	9%	1.9 TLU	39%	–	–	–	–	–	–	–
B1	–	–	–	–	–	–	–	–	–	–	–	–	> 3.8 µg/mL	above 4 μg/mL	approximately 4 μg/mL	did not interfere	> 2 µg/mL	about 30 -fold	very little activity

Source: US6087121A, “Chemiluminescent detection of heme proteins in biological samples” (Mayo Foundation for Medical Education and Research, priority 1999, dated 2000)
